Measured values taken from US20140256756A1, “PIPERIDINYL-SUBSTITUTED LACTAMS AS GPR119 MODULATORS” (Array BioPharma Inc., priority 2011, published 2014).
Counter-ions that a name gives are not always drawn.

System: modified version of the GPR119 receptor (94% identity to human receptor)
Test: cAMP production assay (LANCE cAMP kit, TR-FRET) in HEK-293 cells
Format: cell-based
Details: for cAMP production in HEK-293 cells: HEK-293 cells stably expressing modified GPR119, test compounds 0.2 nM to 10 μM, one-hour incubation; for Fold over baseline: increase in cAMP relative to basal levels, agonist activity if 1.5-fold or greater
Experimental: The assay utilized HEK-293 cells that stably express a modified version of the GPR119 receptor (94% identity to human receptor), under the control of a CMV promoter containing a tet-on element for tetracycline-inducible expression. GPR119 agonist-induced cyclic AMP (cAMP) production was measured in this cell line using the LANCE cAMP kit (Perkin Elmer, Waltham, Mass.). To generate a working stock of cells for the assay, cells were treated overnight with 1 μg/mL doxycycline at 37° C. in the presence of 5% CO2 to induce receptor expression. Cells were then harvested by enzymatic dissociation with 0.05% trypsin, resuspended in freezing medium (DMEM growth medium with 10% each of fetal bovine serum and DMSO), aliquoted and frozen at −80° C. On the day of the assay, frozen cells were thawed, washed 1× in PBS and resuspended in Hank's buffered salt solution (HBSS) containing 5 mM HEPES, 0.1% BSA and Alexa Fluor 647-conjugated anti-cAMP antibody (diluted 1:100). The cell suspension was then transferred to a Proxiplate Plus white 384-well assay plate (Perkin-Elmer) at 2000 cells/well. Test compounds at final concentrations ranging from 0.2 nM to 10 μM were added to the assay plate, followed by a one-hour incubation at ambient temperature (volume=10 μL/well). DMSO concentration was held constant at 0.5%. After incubation with test compounds, 10 μL, of a detergent buffer containing a biotinylated cAMP/Europium-conjugated streptavidin complex (Europium-labeled cAMP tracer) were added to each well on the assay plate, followed by a 2-hour incubation at ambient temperature. During this incubation cAMP released from lysed cells competes with the Europium-labeled cAMP tracer for binding to the Alexa Fluor 647-conjugated antibody. […] Cellular cAMP levels were then determined by interpolation of raw signal data using a cAMP standard curve. Compounds were determined to have agonist activity if they stimulated a 1.5-fold or greater increase in cAMP relative to basal levels.

SMILES	cAMP production in HEK-293 cells [nmol]	Fold over baseline
CC(C)c1nsc(N2CCC(N3CCC(Oc4ccc(S(=O)(=O)CC5CC5)cc4F)C3=O)CC2)n1 (centres unmarked) [Example 44, 3-(4-(Cyclopropylmethylsulfonyl)-2-fluorophenoxy)-1-(1-(3-isopropyl-1,2,4-thiadiazol-5-yl)piperidin-4-yl)pyrrolidin-2-one trifluoroacetate]	23.8	3.4
CC(C)c1nsc(N2CCC(N3CCC(Oc4ccc(S(=O)(=O)C(C)C)cc4F)C3=O)CC2)n1 (centres unmarked) [Example 45, 3-(2-fluoro-4-(isopropylsulfonyl)phenoxy)-1-(1-(3-isopropyl-1,2,4-thiadiazol-5-yl)piperidin-4-yl)pyrrolidin-2-one]	17.8	3.5
CC(C)c1nsc(N2CCC(N3CCC(Oc4ccc(S(=O)(=O)C5CC5)cc4F)C3=O)CC2)n1 (centres unmarked) [Example 46, 3-(4-(Cyclopropylsulfonyl)-2-fluorophenoxy)-1-(1-(3-isopropyl-1,2,4-thiadiazol-5-yl)piperidin-4-yl)pyrrolidin-2-one trifluoroacetate]	20.7	4.7
CS(=O)(=O)c1cc(F)c(OC2CCN(C3CCN(c4nc(C5CC5)ns4)CC3)C2=O)cc1F.O=C(O)C(F)(F)F (centres unmarked) [Example 47, 1-(1-(3-Cyclopropyl-1,2,4-thiadiazol-5-yl)piperidin-4-yl)-3-(2,5-difluoro-4-(methylsulfonyl)phenoxy)pyrrolidin-2-one trifluoroacetate]	9.8	2.7
CS(=O)(=O)c1cc(F)c(OC2CCN(C3CCN(c4nc(-c5ccccc5)ns4)CC3)C2=O)cc1F (centres unmarked) [Example 48, 3-(2,5-difluoro-4-(methylsulfonyl)phenoxy)-1-(1-(3-phenyl-1,2,4-thiadiazol-5-yl)piperidin-4-yl)pyrrolidin-2-one trifluoroacetate]	20.5	3.3
CC(C)Cc1nsc(N2CCC(N3CCC(Oc4cc(F)c(S(C)(=O)=O)cc4F)C3=O)CC2)n1 (centres unmarked) [Example 49, 3-(2,5-difluoro-4-(methylsulfonyl)phenoxy)-1-(1-(3-isobutyl-1,2,4-thiadiazol-5-yl)piperidin-4-yl)pyrrolidin-2-one trifluoroacetate]	15.4	2.8
CC(C)c1nsc(N2CCC(N3CC[C@H](Oc4ccc(S(C)(=O)=O)cc4F)C3=O)CC2)n1 [Example 50, (S)-3-(2-fluoro-4-(methylsulfonyl)phenoxy)-1-(1-(3-isopropyl-1,2,4-thiadiazol-5-yl)piperidin-4-yl)pyrrolidin-2-one]	15.1	5.6
CC(C)c1nsc(N2CCC(N3CC[C@@H](Oc4ccc(S(C)(=O)=O)cc4F)C3=O)CC2)n1 [Example 51, (R)-3-(2-fluoro-4-(methylsulfonyl)phenoxy)-1-(1-(3-isopropyl-1,2,4-thiadiazol-5-yl)piperidin-4-yl)pyrrolidin-2-one]	33.3	5.9
CC(C)c1nsc(N2CCC(N3CC[C@H](Oc4cc(F)c(S(C)(=O)=O)cc4F)C3=O)CC2)n1 [Example 52, (S)-3-(2,5-difluoro-4-(methylsulfonyl)phenoxy)-1-(1-(3-isopropyl-1,2,4-thiadiazol-5-yl)piperidin-4-yl)pyrrolidin-2-one]	24.6	3.9
CC(C)c1nsc(N2CCC(N3CC[C@H](Oc4ccc(S(C)(=O)=O)c(F)c4)C3=O)CC2)n1 [Example 53, (S)-3-(3-fluoro-4-(methylsulfonyl)phenoxy)-1-(1-(3-isopropyl-1,2,4-thiadiazol-5-yl)piperidin-4-yl)pyrrolidin-2-one]	24.5	4.9
CC(C)c1nsc(N2CCC(N3CC[C@H](Oc4ccc(S(C)(=O)=O)c(Cl)c4)C3=O)CC2)n1 [Example 54, (S)-3-(3-chloro-4-(methylsulfonyl)phenoxy)-1-(1-(3-isopropyl-1,2,4-thiadiazol-5-yl)piperidin-4-yl)pyrrolidin-2-one]	17.2	3.6
CN(C)c1nsc(N2CCC(N3CC[C@H](Oc4cc(F)c(S(C)(=O)=O)cc4F)C3=O)CC2)n1 [Example 55, (S)-3-(2,5-difluoro-4-(methylsulfonyl)phenoxy)-1-(1-(3-(dimethylamino)-1,2,4-thiadiazol-5-yl)piperidin-4-yl)pyrrolidin-2-one]	17.2	3.8
CC(C)Cc1nsc(N2CCC(N3CC[C@H](Oc4ccc(S(C)(=O)=O)cc4F)C3=O)CC2)n1 [Example 56, (S)-3-(2-fluoro-4-(methylsulfonyl)phenoxy)-1-(1-(3-isobutyl-1,2,4-thiadiazol-5-yl)piperidin-4-yl)pyrrolidin-2-one]	17.4	3.4
Cc1cc(O[C@H]2CCN(C3CCN(c4nc(C(C)C)ns4)CC3)C2=O)c(F)cc1Br [Example 57, (S)-3-(4-bromo-2-fluoro-5-methylphenoxy)-1-(1-(3-isopropyl-1,2,4-thiadiazol-5-yl)piperidin-4-yl)pyrrolidin-2-one]	22.0	2.8
Cc1cc(O[C@H]2CCN(C3CCN(c4nc(C(C)C)ns4)CC3)C2=O)c(F)cc1S(C)(=O)=O [Example 58, (S)-3-(2-fluoro-5-methyl-4-(methylsulfonyl)phenoxy)-1-(1-(3-isopropyl-1,2,4-thiadiazol-5-yl)piperidin-4-yl)pyrrolidin-2-one]	48.4	4.9
CS(=O)(=O)c1ccc(O[C@H]2CCN(C3CCN(c4nc(C5CCOCC5)ns4)CC3)C2=O)c(F)c1 [Example 59, (S)-3-(2-fluoro-4-(methylsulfonyl)phenoxy)-1-(1-(3-(tetrahydro-2H-pyran-4-yl)-1,2,4-thiadiazol-5-yl)piperidin-4-yl)pyrrolidin-2-one]	28.3	4.2
CC1(c2nsc(N3CCC(N4CC[C@H](Oc5ccc(S(C)(=O)=O)cc5F)C4=O)CC3)n2)CCOCC1 [Example 60, (S)-3-(2-fluoro-4-(methylsulfonyl)phenoxy)-1-(1-(3-(4-methyltetrahydro-2H-pyran-4-yl)-1,2,4-thiadiazol-5-yl)piperidin-4-yl)pyrrolidin-2-one]	13.2	4.5
CCS(=O)(=O)c1ccc(OC2CCN(C3CCN(c4nc(C(C)C)ns4)CC3)C2=O)c(F)c1 (centres unmarked) [Example 61, 3-(4-(ethylsulfonyl)-2-fluorophenoxy)-1-(1-(3-isopropyl-1,2,4-thiadiazol-5-yl)piperidin-4-yl)pyrrolidin-2-one]	23.5	3.5
CC(C)c1nsc(N2CCC(N3CCC(Oc4ccc(S(=O)(=O)c5ccccc5)cc4F)C3=O)CC2)n1 (centres unmarked) [Example 62, 3-(2-Fluoro-4-(phenylsulfonyl)phenoxy)-1-(1-(3-isopropyl-1,2,4-thiadiazol-5-yl)piperidin-4-yl)pyrrolidin-2-one]	17.4	2.7
